# What was measured:
# [1] = molecular target: T1, 5-hydroxytryptamine receptor 1A (Homo sapiens, UniProt P08908); experiment: Binding affinity was evaluated at 5-hydroxytryptamine 1A receptor labeled with [3H]-8-OH-DPAT
# T1 sequence (P08908 whole entry): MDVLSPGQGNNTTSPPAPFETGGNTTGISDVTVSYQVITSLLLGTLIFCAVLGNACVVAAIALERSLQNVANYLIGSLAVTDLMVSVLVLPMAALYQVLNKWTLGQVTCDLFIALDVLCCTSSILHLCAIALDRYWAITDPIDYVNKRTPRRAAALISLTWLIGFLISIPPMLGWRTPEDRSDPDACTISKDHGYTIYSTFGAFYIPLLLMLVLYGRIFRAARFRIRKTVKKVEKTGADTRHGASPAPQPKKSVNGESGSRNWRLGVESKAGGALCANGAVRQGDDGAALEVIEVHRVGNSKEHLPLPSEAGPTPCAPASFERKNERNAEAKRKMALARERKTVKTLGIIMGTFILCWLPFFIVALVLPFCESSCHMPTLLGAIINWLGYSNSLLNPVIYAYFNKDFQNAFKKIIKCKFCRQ
# [2] = molecular target: Sodium-dependent serotonin transporter (Homo sapiens, UniProt P31645); experiment: Binding affinity at 5-HT reuptake site labeled with [3H]paroxetine
# [3] = molecular target: T2, 5-hydroxytryptamine receptor 1A (Homo sapiens) (UniProt P08908); experiment: Evaluated for stimulation at 1 uM concentration expressed as percent of the maximal [35S]GTP-gamma-S, binding induced by 5-hydroxytryptamine; format: functional
# T2 sequence (whole entry): T1 sequence (P08908 whole entry)
# Sodium-dependent serotonin transporter, sequence (P31645 whole entry): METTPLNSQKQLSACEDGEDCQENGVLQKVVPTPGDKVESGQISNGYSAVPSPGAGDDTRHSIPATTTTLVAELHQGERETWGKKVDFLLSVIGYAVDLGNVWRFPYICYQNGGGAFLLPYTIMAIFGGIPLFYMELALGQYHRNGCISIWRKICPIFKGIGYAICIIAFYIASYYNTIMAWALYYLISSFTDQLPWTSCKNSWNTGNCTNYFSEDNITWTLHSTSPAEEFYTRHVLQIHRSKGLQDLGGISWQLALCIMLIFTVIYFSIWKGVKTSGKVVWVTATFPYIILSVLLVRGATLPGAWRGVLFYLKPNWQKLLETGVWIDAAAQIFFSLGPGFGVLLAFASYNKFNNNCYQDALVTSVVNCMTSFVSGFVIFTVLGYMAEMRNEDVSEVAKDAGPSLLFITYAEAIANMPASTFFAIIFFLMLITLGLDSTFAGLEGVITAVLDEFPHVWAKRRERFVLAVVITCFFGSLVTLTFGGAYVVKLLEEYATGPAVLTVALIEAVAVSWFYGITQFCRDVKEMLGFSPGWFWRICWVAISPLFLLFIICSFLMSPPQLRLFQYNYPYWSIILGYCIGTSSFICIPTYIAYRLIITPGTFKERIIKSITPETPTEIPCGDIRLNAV
smiles,measurement,setting,value
O[C@@H](COc1cccc2[nH]ccc12)CN1CCC(c2csc3ccccc23)CC1,Ki,[1],1.84 nM
Cc1cc2c(OC[C@@H](O)CN3CC[C@@H](c4ccc5ccccc5c4)C[C@@H]3C)cccc2[nH]1,Ki,[2],0.4 nM
same,Ki,[1],5.11 nM
same,Emax,[3],9%
Cc1cc2c(OC[C@H](O)CN3CC[C@@H](c4cccc5sccc45)C[C@@H]3C)cccc2[nH]1,Ki,[2],4.35 nM
same,Ki,[1],1.82 nM
same,Emax,[3],15%
Cc1cc2c(OC[C@@H](O)CN3CC[C@@H](c4cc5ccccc5s4)C[C@@H]3C)cccc2[nH]1,Ki,[2],0.53 nM
Cc1cc2c(OC[C@@H](O)CN3CC[C@@H](c4cccc5occc45)C[C@@H]3C)cccc2[nH]1,Ki,[2],7.18 nM
same,Ki,[1],1.23 nM
same,Emax,[3],8%
COc1cccc2ccc([C@@H]3CCN(C[C@H](O)COc4cccc5[nH]c(C)cc45)[C@@H](C)C3)cc12,Ki,[2],0.34 nM
same,Ki,[1],10.9 nM
same,Emax,[3],11%
O[C@@H](COc1cccc2[nH]ccc12)CN1CCC(c2cc3ccccc3s2)CC1,Ki,[2],16.7 nM
same,Ki,[1],3.7 nM
same,Emax,[3],12%
Cc1cc2c(OC[C@@H](O)CN3CC[C@@H](c4ccc5ccoc5c4)C[C@@H]3C)cccc2[nH]1,Ki,[2],3.77 nM
same,Ki,[1],1.05 nM
same,Emax,[3],6%
COc1cccc2sc([C@@H]3CCN(C[C@H](O)COc4cccc5[nH]c(C)cc45)[C@@H](C)C3)cc12,Ki,[2],0.86 nM
same,Emax,[3],3%
Cc1cc2c(OC[C@H](O)CN3CC[C@@H](c4ccc5occc5c4)C[C@@H]3C)cccc2[nH]1,Ki,[2],1.69 nM
same,Ki,[1],1.39 nM
same,Emax,[3],9%
Cc1cc2c(OC[C@@H](O)CN3CC[C@@H](c4ccc5c(C)csc5c4)C[C@@H]3C)cccc2[nH]1,Ki,[2],0.58 nM
same,Ki,[1],7.82 nM
same,Emax,[3],4%
Cc1cc2c(OC[C@@H](O)CN3CC[C@@H](c4ccc5scc(C)c5c4)C[C@@H]3C)cccc2[nH]1,Ki,[2],0.54 nM
same,Ki,[1],3.12 nM
same,Emax,[3],8%
Cc1cc2c(OC[C@H](O)CN3CC[C@@H](c4ccc5sccc5c4)C[C@@H]3C)cccc2[nH]1,Ki,[2],0.3 nM
same,Ki,[1],1.43 nM
same,Emax,[3],12%
Cc1cc2c(OC[C@@H](O)CN3CC[C@@H](c4cccc5ccsc45)C[C@@H]3C)cccc2[nH]1,Ki,[2],9.24 nM
same,Ki,[1],0.91 nM
same,Emax,[3],8%
Cc1cc2c(OC[C@@H](O)CN3CC[C@@H](c4ccc5ccsc5c4)C[C@@H]3C)cccc2[nH]1,Ki,[2],0.75 nM
same,Ki,[1],4.45 nM
same,Emax,[3],12%
